According to patent publication US9440980B2, “Remedy for diabetes” (EA Pharma Co., Ltd., priority 2007, dated 2016):

Key:
[1] = tested on: PI3-kinase α (p110α/p85α); assay: PI3-kinase subtype activity in the presence of Gβ1γ2-Myc (PIP3 production, 32P-ATP, TLC); assay type: biochemical; conditions: 30 μM, FIG. 13
Method: The subtypes α (PI3 Kinase (p110α/p85α), active, Upstate, Product No. 14-602), β (PI3 Kinase (p110β/p85α), active, Upstate, Product No. 14-603), γ ((PI3KγHis-GST (Phosphoinositide 3-kinase p110γHis/p101GST) human, Recombinant, Sf9 insect cell, JENA Bioscience, Product No. PR-347S), and δ (PI3 Kinase (p110δ/p85α), active, Upstate, Product No. 14-604) were used as the PI3-kinase subtypes respectively. A PI3K buffer (40 mM HEPES-Na (pH 7.4), 120 mM NaCl, 1 mM EGTA, 1 mM dithiothreitol, 1 mM β glycerophosphoric acid, 10 mM MgCl2, 0.1% BSA) was used as a buffer in the following reactions.
A mixture liquid of phosphatidylethanolamine (0.256 μmol), phosphatidylserine (0.24 μmol), phosphatidylcholine (0.112 μmol), sphingomyelin (0.024 μmol), and phosphatidylinositol-[4,5]-bisphosphate (0.032 μmol) was added to a glass tube and dried by argon gas, and to this was added the PI3K buffer (0.27 ml) at ice temperature. This solution was ultrasonic-treated in ice to prepare a lipid micelle solution. […] The data were analyzed by a software of BAS2000, the analysis region was controlled such that spots of phosphatidylinositol-[3,4,5]-trisphosphate (PIP3) in the TLC lanes have the same areas, and the energy (PSL) corresponding to each radioactivity was quantified in the region.

HLF cell membrane = assay: Binding assay of 3H-labeled Compound 1 using HLF cell membrane; parameters: species or system human; conditions: 3H-labeled Compound 1, calculated by Scatchard plot
Method: A cell membrane of a human liver-derived HLF cell was prepared as follows. HLF cells were approximately confluently cultured in a Dulbecco MEM medium containing 10% FCS in a cell culture dish having a diameter of 15 cm. The HLF cells cultured in 30 dishes were scraped by a cell scraper in the presence of an HMEE buffer (20 mM HEPES-KOH, 1 mM EDTA, 1 mM EGTA, and 2 mM MgCl2) to obtain about 30 ml of a cell suspension. The suspension was homogenized using a TEFLON (registered trademark) homogenizer (ice temperature, 1000 rpm, 15 stroke) and centrifuged at a low rate (1500 rpm, 5 minutes). […]
The binding assay of the ^3H-labeled Compound 1 on thus obtained cell membrane was carried out as follows. […] The filter plate was well washed with a TBS (20 mM Tris-HCl, 0.15 M NaCl, pH 7.4) containing 0.05% Twee-20 and sufficiently dried, 30 μl of a liquid scintillator (Microscinti 0, Packard) was added to the filter plate, and the ^3H count was measured by Topcount (Packard). […]
The inhibitory activity of each of the probe molecule compounds synthesized in Examples 2 and 7 to 10 against the binding of the ^3H-labeled Compound 1 to the HLF cell membrane was measured by the method described in Example 14 to confirm whether the probe compound could be bound to the binding protein like Compound 1. […]

effect on PI3-kinase α activity [1]: only on the PI3-kinase β
Compound: O=C1NCC2=C1[C@@H](c1cccc3ccsc13)N(C(=O)CCc1ccccn1)[C@@H]1CCCC[C@H]1N2 [Compound 1]
Kd (HLF cell membrane): 930 nM
